Assay results from ChEMBL document CHEMBL3797165, “Synthesis and biological evaluation of novel 1,2,4-triazine derivatives bearing carbazole moiety as potent α-glucosidase inhibitors” (Bioorg Med Chem Lett, 2016).

test: Inhibition of Saccharomyces cerevisiae alpha-glucosidase using para-nitrophenyl-alpha-D-glucopyranoside as substrate preincubated for 15 mins followed by substrate addition measured after 30 mins by spectrophotometric method

| Compound | IC50 [µM] |
| --- | --- |
| OC(CSc1nnc(-c2ccccc2)c(-c2ccccc2)n1)Cn1c2ccc(Br)cc2c2cc(Br)ccc21 (stereo not drawn) | 19.3 |
| OC(CSc1nnc(-c2cccc(F)c2)c(-c2cccc(F)c2)n1)Cn1c2ccc(Cl)cc2c2cc(Cl)ccc21 (stereo not drawn) | 33.1 |
| O=[N+]([O-])c1ccc2c(c1)c1ccccc1n2CC(O)CSc1nnc(-c2ccccc2F)c(-c2ccccc2F)n1 (stereo not drawn) | 22.1 |
| C[C@@H]1O[C@@H](O[C@@H]2[C@@H](O)[C@H](O)[C@H](O[C@H]3[C@H](O)[C@@H](O)C(O)O[C@@H]3CO)O[C@H]2CO)[C@@H](O)[C@H](O)[C@H]1N[C@H]1C=C(CO)[C@@H](O)[C@H](O)[C@H]1O (stereo partly drawn) | 996 |
| O=[N+]([O-])c1ccc2c(c1)c1ccccc1n2CC(O)CSc1nnc(-c2ccccc2)c(-c2ccccc2)n1 (stereo not drawn) | 25 |
| OC(CSc1nnc(-c2ccccc2Cl)c(-c2ccccc2Cl)n1)Cn1c2ccccc2c2ccccc21 (stereo not drawn) | 47.8 |
| OC(CSc1nnc(-c2cccc(Br)c2)c(-c2cccc(Br)c2)n1)Cn1c2ccccc2c2ccccc21 (stereo not drawn) | 20.1 |
| OC(CSc1nnc(-c2ccccc2)c(-c2ccccc2)n1)Cn1c2ccc(Cl)cc2c2cc(Cl)ccc21 (stereo not drawn) | 27.8 |
| OC(CSc1nnc(-c2ccccc2)c(-c2ccccc2)n1)Cn1c2ccccc2c2ccccc21 (stereo not drawn) | 31.3 |
| OC(CSc1nnc(-c2ccccc2F)c(-c2ccccc2F)n1)Cn1c2ccccc2c2ccccc21 (stereo not drawn) | 21.1 |

The remaining molecules from weak to strong by IC50, led by results:

| IC50 [µM] | Compound |
| --- | --- |
| 19.2 | OC(CSc1nnc(-c2cccc(Br)c2)c(-c2cccc(Br)c2)n1)Cn1c2ccc(Cl)cc2c2cc(Cl)ccc21 (stereo not drawn) |
| 17.7 | OC(CSc1nnc(-c2ccco2)c(-c2ccco2)n1)Cn1c2ccccc2c2ccccc21 (stereo not drawn) |
| 17.6 | OC(CSc1nnc(-c2ccc(F)cc2)c(-c2ccc(F)cc2)n1)Cn1c2ccccc2c2ccccc21 (stereo not drawn) |
| 12.8 | OC(CSc1nnc(-c2ccccc2F)c(-c2ccccc2F)n1)Cn1c2ccc(Br)cc2c2cc(Br)ccc21 (stereo not drawn) |
| 9.56 | OC(CSc1nnc(-c2cccc(Br)c2)c(-c2cccc(Br)c2)n1)Cn1c2ccc(Br)cc2c2cc(Br)ccc21 (stereo not drawn) |
| 9.24 | OC(CSc1nnc(-c2ccco2)c(-c2ccco2)n1)Cn1c2ccc(Cl)cc2c2cc(Cl)ccc21 (stereo not drawn) |
| 4.27 | OC(CSc1nnc(-c2ccco2)c(-c2ccco2)n1)Cn1c2ccc(Br)cc2c2cc(Br)ccc21 (stereo not drawn) |

test: Non-competitive inhibition of Saccharomyces cerevisiae alpha-glucosidase using para-nitrophenyl-alpha-D-glucopyranoside as substrate preincubated for 15 mins followed by substrate addition measured after 30 mins by Lineweaver-Burk plot analysis

| Ki [µM] | Compound |
| --- | --- |
| 4.43 | OC(CSc1nnc(-c2ccco2)c(-c2ccco2)n1)Cn1c2ccc(Br)cc2c2cc(Br)ccc21 (stereo not drawn) |
